Source: patent US12161669B2, “Compositions and methods for cell targeting therapies” (UMC UTRECHT HOLDING B.V., priority 2017, dated 2024)

Key:
[1] = tested on: CD277; experiment: Flow cytometry FRET of CD277 homodimerization in HEK 293 cells; format: cell-based; conditions: medium vs ABP
Experimental: In order to determine homodimerization of CD277 molecules, cells were co-stained with equal amount of PE-conjugated anti-CD277 (donor) and […]680-conjugated anti-CD277 (acceptor) and samples were measured using a FACS Canto-II flow cytometer (BD). FRET efficiency was calculated with equations according to Sebestyen and colleagues (Sebestyen et al., 2002) where donor fluorescence was excited at 488 nm and detected at 576±26 nm, acceptor fluorescence was excited at 635 nm and detected at 780±60 nm, whereas FRET intensity was excited at 488 nm and detected at 780±60 nm. Correction factors for the spectral overlap between the different fluorescence channels were obtained from data measured on unlabeled and single-labeled cells.

[2] = tested on: Daudi; experiment: IFNγ ELISA of γ9δ2T cell clones co-incubated with Daudi; format: cell-based
Experimental: PBMCs were stained with monoclonal antibody (mAb) to Vδ2 (Vδ2-FITC clone B6). The mAb-positive fraction was either sorted in bulk, expanded on REP, and thereafter cloned by limiting dilution (donor A) or single cell-sorted using FACS sort with collection of single cells in 96 well plates (donors B, C). All FACS sorts were performed on ARIAII (BD). Eight to twelve rounds of expansion on REP preceded functional testing. As soon as the cells expanded to sufficient numbers functional testing was performed: 5*10^4 T cells were incubated overnight together with target cells at 1:1 E:T ratio in DMEM supplemented with 10% FCS and 1% pen/strep, without or in the presence of 100 uM Pamidronate Disodium salt (Calbiochem Cat #506600), supernatants were harvested the day after, and IFNγ concentration was measured using ELISA (eBioscience Ready-Set-Go! ELISA kit, Invitrogen Cat #88731688).
In order to assess on a broader range the impact of individual γ9δ2TCR on the functional activity of individual γ92δT cell clones γδ T cell clones were isolated by limiting dilution or FACS sorting. In vitro antitumor activity was determined by IFNγ production against the tumor cell line Daudi. Substantial antitumor functional heterogeneity was observed among the γ9δ2T cell clones (N=57) isolated from 4 healthy donors, with approximately 60% of the clones being reactive to the tumor cell line Daudi (FIG. 13A), when choosing a cut-off of 30 pg/ml for reliable measurement of IFNγ concentration. Bisphopshonates such as pamidronate (PAM) can enhance activity of γ9δ2T cells through induction of CD277J, facilitated by RhoB and sensed by the γ9δ2TCR. In the presence of 100 μM PAM the reactivity of investigated γ9δ2T cell clones was on average 10-fold enhanced (range 0.7-37.3; median 8.1) with >95% of the clones showing reactivity above the threshold when PAM was added (FIG. 13A). In order to assess whether activity profiles where exclusively observed for Daudi cells or also valid for other targets, the cell line HEK293FT, an additional well-characterized γδT cell target, was co-incubated with the isolated γδT cell clones. HEK293FT cell line elicited much lower cytokine secretion in the absence of PAM with only approximately 30% of γ9δ2T cell clones secreting IFNγ above cut-off (FIG. 13B).

NCCC(O)(P(=O)(O)O)P(=O)(O)O [pamidronate]
pairing of CD277 molecules (homodimer FRET) [1]: insensitive
clones showing reactivity above the threshold ([2]; 100 μM PAM added, cut-off 30 pg/ml IFNγ): > 95%
enhancement of reactivity of γ9δ2T cell clones, average ([2]; 100 μM PAM vs no PAM): 10 fold
enhancement of reactivity of γ9δ2T cell clones, median ([2]; 100 μM PAM vs no PAM): 8.1 fold
enhancement of reactivity of γ9δ2T cell clones, range ([2]; 100 μM PAM vs no PAM): 0.7-37.3 fold
